{"source": "patent US20250186436A1", "about": "(4E Therapeutics, Inc., priority 2021, published 2025)", "key": {"[1]": {"experiment": "Plasma and brain concentrations, brain:plasma ratio in rats 2 hr after single PO 1 mg/kg (Example 5)", "type": "in vivo", "settings": "for concentration at 2 hr: po", "experimental": "Table 15 provides plasma and brain concentrations at 2 hr after a single P0 dose of 1 mg/kg."}, "[2]": {"experiment": "PK study in male Sprague-Dawley rats dosed once per day for five days, PO 10 mg/kg, 0.5% HPMC (Example 7)", "type": "in vivo", "settings": "0.5% HPMC suspension"}, "[3]": {"tested_on": "eIF4E phosphorylation in hDRGs", "experiment": "p-eIF4E immunofluorescence in cultured human dorsal root ganglion cells (hDRGs)", "type": "cell-based", "settings": "immunofluorescence", "experimental": "For all human DRG experiments, DRGs were recovered from organ donors at the Southwest Transplant Alliance under an IRB approved protocol at University of Texas at Dallas. DRGs were recovered within 3 hrs of cross clamp. DRGs were recovered and taken back to the University of Texas lab where they were cultured using the protocol described previously. Cultures were grown on glass coverslips for microscopy. Coverslips were coated with poly-D-lysine and laminin to improve neuronal adherence to the coverslips. Cultures of human DRG neurons were grown for 4-7 days prior to treatment with OSM. OSM treatment was done in culture media for a period of 30 min. Cells were stained with antibodies using the same protocol as described above for HEK293 cells. Imaging was done on an Olympus FV1200 microscope and image analysis was done with CellSens software. Statistical analysis was done with Graphpad Prism V8.\nHuman DRG recovery and other experimental protocols were the same as described herein."}, "[4]": {"experiment": "PK study in male Sprague-Dawley rats dosed once per day for five days, PO 1 mg/kg, 0.5% HPMC (Example 6)", "type": "in vivo", "settings": "0.5% HPMC suspension", "experimental": "Example 6: PK study of 4ET-03-053 in male Sprague-Dawley rats dosed once per day for five days (P0; 1 mg/kg; 0.500HPMC aqueous suspension)\nTable 18 provides plasma and brain concentrations of 4ET-03-0053 at 24 hr after the last dose of five daily P0 doses."}, "[5]": {"settings": "Sprague-Dawley rats, day 5 of daily PO 1 mg/kg, individual animals, 1 mg/kg"}, "[6]": {"settings": "Sprague-Dawley rats, day 5 of daily PO 1 mg/kg, mean (n = 3)"}, "[7]": {"settings": "male Sprague-Dawley rats, single (first) PO 1 mg/kg dose, individual animals, 1 mg/kg"}, "[8]": {"settings": "male Sprague-Dawley rats, single (first) PO 1 mg/kg dose, mean (n = 3)"}, "[9]": {"settings": "male, Sprague-Dawley, rat, in vivo, po, 1 mg/kg, Sprague-Dawley rats, day 5 of daily PO 1 mg/kg, individual animals"}}, "note": "Where “and” joins values, the source holds several entries; their conditions need not be identical. Equal entries are not always repeated. Where two headings read alike, the source gives them in different places.", "data": [{"compound": "Cc1cc(Nc2cc(N)ncn2)c(=O)n2c1C(=O)NC21CCC2(CC2)CC1", "note": "[4ET-03-053, 6″-((6-Aminopyrimidin-4-yl)amino)-8″-methyl-2″H-dispiro[cyclopropane-1,1′-cyclohexane-4′,3″-imidazo[1,5-a]pyridine]-1″,5″-dione]", "values": [{"measurement": "concentration at 2 hr", "setting": "[1]; male, Sprague-Dawley, rat, brain homogenate, 1 mg/kg, rats, brain homogenate, 2 hr after single PO 1 mg/kg, individual animals (n = 3), read-out: Tissue Homogenate Conc.", "value": 9.82, "unit": "ng/mL"}, {"measurement": "concentration at 2 hr", "setting": "[1]; male, Sprague-Dawley, rat, brain homogenate, 1 mg/kg, rats, brain homogenate, 2 hr after single PO 1 mg/kg, mean, read-out: Tissue Homogenate Conc., Mean", "value": 11.8, "unit": "ng/mL"}, {"measurement": "concentration at 2 hr", "setting": "[1]; male, Sprague-Dawley, rat, brain, 1 mg/kg, rats, brain, 2 hr after single PO 1 mg/kg, read-out: Mean Tissue", "value": 47.2, "unit": "ng/g"}, {"measurement": "concentration at 2 hr", "setting": "[1]; male, Sprague-Dawley, rat, plasma, 1 mg/kg, rats, plasma, 2 hr after single PO 1 mg/kg, individual animals (n = 3), read-out: Plasma Conc.", "value": 506, "unit": "ng/mL"}, {"measurement": "concentration at 2 hr", "setting": "[1]; male, Sprague-Dawley, rat, plasma, 1 mg/kg, rats, plasma, 2 hr after single PO 1 mg/kg, mean, read-out: Plasma Conc., Mean", "value": 566, "unit": "ng/mL"}, {"measurement": "Kp at 2 hr", "setting": "[1]; male, Sprague-Dawley, rat, rats, brain to plasma, 2 hr after single PO 1 mg/kg, read-out: Mean Tissue/Plasma Conc. Ratio", "value": 0.083}, {"measurement": "Kp at 2 h", "setting": "[1]; rat, brain, Sprague-Dawley rats, 2 hr after a single PO dose of 1 mg/kg", "value": 0.083}, {"measurement": "Tissue Homogenate Conc.", "setting": "[1]; rats, brain homogenate, 2 hr after single PO 1 mg/kg, individual animals (n = 3), 1 mg/kg", "value": "11.4 ng/mL and 14.2 ng/mL"}, {"measurement": "Plasma Conc.", "setting": "[1]; rats, plasma, 2 hr after single PO 1 mg/kg, individual animals (n = 3), 1 mg/kg", "value": "539 ng/mL and 652 ng/mL"}, {"measurement": "MRT inf", "setting": "[2]; male, Sprague-Dawley, rat, in vivo, po, 10 mg/kg, single PO 10 mg/kg dose, mean (n = 3)", "value": 7.43, "unit": "h"}, {"measurement": "AUC(0-inf)", "setting": "[2]; male, Sprague-Dawley, rat, in vivo, po, 10 mg/kg, single PO 10 mg/kg, read-out: total systemic exposure (AUCinf)", "value": 272000, "unit": "ng·h/mL"}, {"measurement": "t1/2", "setting": "[2]; single PO 10 mg/kg dose, individual animals, 10 mg/kg", "value": "4.83 h and 5.11 h"}, {"measurement": "time to peak plasma concentration", "setting": "[2]; single PO 10 mg/kg", "value": "≤ 2", "unit": "h"}, {"measurement": "phosphorylation of eIF4E in hDRGs", "setting": "[3]; 30 min treatment", "value": "reduces phosphorylation of eIF4E"}, {"measurement": "phosphorylation of eIF4E in hDRGs in the presence of OSM", "setting": "[3]; in presence of OSM", "value": "reduces phosphorylation of eIF4E"}, {"measurement": "time to peak plasma concentration", "setting": "[4]; Sprague-Dawley rats, after five daily PO doses of 1 mg/kg", "value": "≤ 2", "unit": "h"}, {"measurement": "AUCinf", "setting": "[4]; [5]", "value": "43537 ng·h/mL and 36277 ng·h/mL"}, {"measurement": "AUCinf/D", "setting": "[4]; [5]", "value": "49825 kg·h/kL and 43537 kg·h/kL and 36277 kg·h/kL"}, {"measurement": "AUClast", "setting": "[4]; [5]", "value": "40882 ng·h/mL and 34335 ng·h/mL"}, {"measurement": "Clast", "setting": "[4]; [5]", "value": "318 ng/mL and 291 ng/mL"}, {"measurement": "Cmax", "setting": "[4]; [5]", "value": "4550 ng/mL and 4500 ng/mL"}, {"measurement": "Cmax/D", "setting": "[4]; [5]", "value": "4150 kg/kL and 4550 kg/kL and 4500 kg/kL"}, {"measurement": "F", "setting": "[4]; [5]", "value": "96.8% and 84.6% and 70.5%"}, {"measurement": "MRTinf", "setting": "[4]; [5]", "value": 7.96, "unit": "h"}, {"measurement": "t1/2", "setting": "[4]; [5]", "value": "5.90 h and 6.21 h"}, {"measurement": "AUCinf/D", "setting": "[4]; [6]", "value": 43213, "unit": "kg·h/kL"}, {"measurement": "Cmax/D", "setting": "[4]; [6]", "value": 4400, "unit": "kg/kL"}, {"measurement": "F", "setting": "[4]; [6]", "value": 84.0, "unit": "%"}, {"measurement": "AUCinf", "setting": "[4]; [7]", "value": "33302 ng·h/mL and 30451 ng·h/mL"}, {"measurement": "AUCinf/D", "setting": "[4]; [7]", "value": "37178 kg·h/kL and 33302 kg·h/kL and 30451 kg·h/kL"}, {"measurement": "AUClast", "setting": "[4]; [7]", "value": "31340 ng·h/mL and 28992 ng·h/mL"}, {"measurement": "Clast", "setting": "[4]; [7]", "value": "237 ng/mL and 224 ng/mL"}, {"measurement": "Cmax", "setting": "[4]; [7]", "value": 2750, "unit": "ng/mL"}, {"measurement": "Cmax/D", "setting": "[4]; [7]", "value": "2400 kg/kL and 2750 kg/kL and 2580 kg/kL"}, {"measurement": "F", "setting": "[4]; [7]", "value": "72.2% and 64.7% and 59.2%"}, {"measurement": "MRTinf", "setting": "[4]; [7]", "value": "8.31 h and 7.83 h"}, {"measurement": "t1/2", "setting": "[4]; [7]", "value": "5.77 h and 5.92 h"}, {"measurement": "AUCinf/D", "setting": "[4]; [8]", "value": 33644, "unit": "kg·h/kL"}, {"measurement": "Cmax/D", "setting": "[4]; [8]", "value": 2577, "unit": "kg/kL"}, {"measurement": "F", "setting": "[4]; [8]", "value": 65.4, "unit": "%"}, {"measurement": "time to peak plasma concentration", "setting": "[4]; male Sprague-Dawley rats, single PO 1 mg/kg", "value": "≤ 2", "unit": "h"}, {"measurement": "bioavailability", "setting": "[4]; male, Sprague-Dawley, rat, in vivo, po, 1 mg/kg, Sprague-Dawley rats, after five daily PO doses of 1 mg/kg", "value": 84, "unit": "%"}, {"measurement": "concentration at 24 h", "setting": "[4]; male, Sprague-Dawley, rat, in vivo, po, 1 mg/kg, Sprague-Dawley rats, after five daily PO doses of 1 mg/kg, at 24 hr, read-out: last measurable concentration", "value": 278, "unit": "ng/mL"}, {"measurement": "Cmax", "setting": "[4]; male, Sprague-Dawley, rat, in vivo, po, 1 mg/kg, Sprague-Dawley rats, after five daily PO doses of 1 mg/kg, read-out: peak plasma concentration (Cmax)", "value": 4400, "unit": "ng/mL"}, {"measurement": "half-life", "setting": "[4]; male, Sprague-Dawley, rat, in vivo, po, 1 mg/kg, Sprague-Dawley rats, after five daily PO doses of 1 mg/kg, read-out: terminal half-life (t1/2) (converted)", "value": 6.01, "unit": "h"}, {"measurement": "AUC(0-inf)", "setting": "[4]; male, Sprague-Dawley, rat, in vivo, po, 1 mg/kg, Sprague-Dawley rats, after five daily PO doses of 1 mg/kg, read-out: total systemic exposure (AUCinf)", "value": 43200, "unit": "ng·h/mL"}, {"measurement": "AUC(0-t)", "setting": "[4]; [9]", "value": 47100, "unit": "ng·h/mL"}, {"measurement": "MRT inf", "setting": "[4]; [9]", "value": 7.89, "unit": "h"}, {"measurement": "Tmax", "setting": "[4]; [9]", "value": 1, "unit": "h"}]}]}
